Measurements from patent US4965280A, “Antifungal carbinols” (E. I. Du Pont de Nemours and Company, priority 1989, dated 1990).
Converted amounts (≈) assume the structure as drawn. Read-outs that look alike come from different tables or passages of the source.

How the values were obtained:
Venturia inaequalis = experiment: Example A apple scab; assay type: in vivo; conditions: 100 PPM, read-out: disease control rating, Ex. A
How it was run: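 First, compounds are taken up in acetone amounting to 6% of the final volume. Next, they are suspended in purified water with 250 ppm TREM 014 at 100 or 20 ppm. Finally, seedlings of apple are sprayed until run-off.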

[1] = system: Cercosporidium personatum; experiment: Example B Peanut Late Leafspot; assay type: in vivo; conditions: Nothopassalora personata; 100 PPM; read-out: disease control rating, Ex. B
How it was run: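 Dose 100 or 20 ppm; vehicle acetone 6% v/v final in water + 250 ppm surfactant; applied by spraying peanut seedlings to run-off.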

Botrytis cinerea = experiment: Example C bean grey mold; assay type: in vivo; conditions: Botrytis cinerea, 24 h, 100 PPM; read-out: disease control rating, Ex. C
How it was run: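 At 20 or 100 ppm, each compound was applied as an aqueous suspension (acetone 6% final; TREM 014 250 ppm) sprayed onto young broad bean plants to the point of run-off.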

[2] = system: Erysiphe graminis f. sp. tritici; experiment: Example D wheat powdery mildew; assay type: in vivo; conditions: Blumeria graminis, 144 h; 100 PPM; read-out: disease control rating, Ex. D
How it was run: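 First, compound taken up in acetone, 6% of the end volume. Next, suspended in water with 250 ppm polyhydric alcohol esters at 100 or 20 ppm. Last, applied to wheat seedlings until run-off.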

Pyricularia oryzae = experiment: whole plant or invertebrate; assay type: in vivo; conditions: Pyricularia oryzae, 120 h, read-out: disease control rating, Ex. E, 100 PPM
Rhizoctonia solani [3] = experiment: Example F rice sheath blight; assay type: in vivo; conditions: Rhizoctonia solani, 144 h, 100 PPM; read-out: disease control rating, Ex. F
How it was run: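 Application rates were 100 or 20 ppm, delivered as a foliar spray to the point of run-off on rice seedlings. The formulation used 6% acetone in water with 250 ppm surfactant.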

Puccinia recondita = experiment: Example G wheat leaf rust; assay type: in vivo; conditions: 100 PPM, read-out: disease control rating, Ex. G
Phytophthora infestans = experiment: whole plant or invertebrate; assay type: in vivo; conditions: Phytophthora infestans, in Solanum lycopersicum, read-out: disease control rating, Ex. H, 100 PPM
Plasmorpara viticola = experiment: Example I grape downy mildew; assay type: in vivo; conditions: read-out: disease control rating, Ex. I
How it was run: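 First, each compound is taken up in acetone amounting to 6% of the final volume. It is then suspended in purified water containing 250 ppm of the polyhydric alcohol ester surfactant TREM 014, at 100 or 20 ppm. Finally, the suspension is sprayed onto grape seedlings until run-off.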

Pythium aphanadermatum = experiment: Example J cucumber damping off; assay type: in vivo; parameters: key to phytotoxicity entry, Ex. J: P: disease control was not measured due to phytoxicity; conditions: 5 kg/ha; for pest or weed control at 5000 g/ha: Pythium, 336 h, read-out: disease control rating, Ex. J
Method: […] Seeds and soil were then inoculated with a mixture of sand, cereal and mycelium of the fungus Pythium aphanadermatum, causal agent of cucumber damping off, and incubated in a growth chamber at 30° C. for 14 days. Disease ratings were then made.

[4] = system: Fusarium oxysporum f. sp. cucumerinum; experiment: Example L cucumber wilt; assay type: in vivo; conditions: 336 h, 5 kg/ha, read-out: disease control rating, Ex. L
Method: […] Seeds and soil were then inoculated with a mixture of sand, cereal and mycelium of the fungus Fusarium oxysporum f. sp. cucumerinum, causal agent of cucumber wilt, and incubated in a growth chamber at 30° C. for 14 days. Disease ratings were then made.

[5] = system: Candida albicans ATCC 11651; experiment: In vitro antifungal MIC, microtiter broth dilution; conditions: Candida albicans, ATCC11651, 24 h, read-out: MIC values, C. albicans, 30°, 24 hours
Method: In vitro activity (Table 5) is expressed in terms of the minimal inhibitory concentration (MIC) of the test compound which inhibits the growth of yeasts and fungi.
The target organisms, Candida albicans ATCC 11651 and Aspergillus fumigatus ATCC 28214 are standardized, [V. Bezjak, J. Clinical Micro., 21 509-512 (1984)], to a concentration of 10^7 organisms/ml and maintained at -70° until use. Test compounds are solubilized in dimethyl sulfoxide (DMSO) and diluted in Eagle's Minimum Essential Medium (EMEM) broth to achieve a final concentration of 200 μg/ml. Stock solutions of standard antifungal agents are stored at -70° and diluted in EMEM as required.
The in vitro assay utilizes a microtiter broth dilution technique [L. Polonelli and G. Morace, Mycopathologia, 86, 21-28 (1984)] and C. […] The appropriate wells are inoculated with the required organism (C. albicans at 1×10^4 organisms/ml and A. fumigatus at 5×10^5 organisms/ml) and the assay incubated at 30° for 24 hours.

[6] = system: Aspergillus fumigatus ATCC 28214; experiment: In vitro antifungal MIC, microtiter broth dilution; conditions: Aspergillus fumigatus, ATCC28214, 24 h, read-out: MIC values, A. fumigatus, 30°, 24 hours
[7] = system: Candida albicans ATCC 11651; experiment: In vivo systemic Candida infection in mice, primary assay; parameters: species or system Candida albicans; CF-1 female mice; conditions: Candida albicans, 150 mg/kg per day, read-out: % Survival
How it was run: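 CF-1 female mice (20 g, 10 per group) were infected IV with 0.2 ml of 1×10^7/ml C. albicans ATCC 11651, then given test compound subcutaneously at 50 or 150 mg/kg/day at 1 and 6 h post-infection and once daily for three more days. Survival was followed for 21 days against infected untreated mice; ≥70% protection at 14 days was scored active.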

Rhizoctonia solani [8] = experiment: Example K cotton blight; assay type: in vivo; conditions: 336 h, 5 kg/ha, read-out: disease control rating, Ex. K
Method: […] Seeds and soil were then inoculated with a mixture of sand, cereal and mycelium of the fungus Rhizoctonia solani, causal agent of cotton blight, and incubated in a growth chamber at 30° C. for 14 days. Disease ratings were then made.

Sclerotium rolfsii = experiment: Example M southern blight; assay type: in vivo; conditions: Agroathelia rolfsii, 336 h; 5 kg/ha; read-out: disease control rating, Ex. M
Method: […] Seeds and soil were then inoculated with a mixture of sand, cereal and mycelium of the fungus Sclerotium rolfsii, causal agent of sourthern blight, and incubated in a growth chamber at 30° C. for 14 days. Disease ratings were then made.

Compound	pest or weed control at 100 ppm (Venturia inaequalis) [%]	pest or weed control at 100 ppm [1] [%]	pest or weed control at 100 ppm (Botrytis cinerea) [%]	pest or weed control at 100 ppm [2] [%]	pest or weed control at 100 ppm (Pyricularia oryzae) [%]	pest or weed control at 100 ppm (Rhizoctonia solani [3]) [%]	pest or weed control at 100 ppm (Puccinia recondita) [%]	pest or weed control at 100 ppm (Phytophthora infestans) [%]	pest or weed control at 100 ppm (Plasmorpara viticola) [%]	pest or weed control at 5000 g/ha (Pythium aphanadermatum) [%]	pest or weed control at 5000 g/ha [4] [%]	MIC [5] [µg/mL]	MIC [6] [µg/mL]	responders at 150 mg/kg ([7]; ATCC11651, 168 h, day 7) [%]	responders at 150 mg/kg ([7]; ATCC11651, 336 h, day 14) [%]	responders at 150 mg/kg ([7]; ATCC11651, 504 h, day 21) [%]	pest or weed control at 5000 g/ha (Rhizoctonia solani [8]) [%]	pest or weed control at 5000 g/ha (Sclerotium rolfsii) [%]	phytotoxicity entry, Ex. J (Pythium aphanadermatum)
C=C(c1ccc(F)cc1)C(O)(Cn1ncnc1I)c1ccccc1F (stereo not drawn) [Example 1377]	100	100	96	92	58	100	100	0	44	0	0	1.6 (≈ 3.53 µM)	100 (≈ 221 µM)						
C=C(c1ccccc1Cl)C(O)(Cn1cncn1)c1ccccc1Cl (stereo not drawn) [Example 622]	100	100	84	99	0	100	100	0	26	0		0.03 (≈ 0.0833 µM)	0.1 (≈ 0.278 µM)	100	100	100	0	0	
C=C(c1ccc(F)cc1)C(O)(CCCC)Cn1cncn1 (stereo not drawn) [Example 6]	0	82	84	98	0	0	96	23	0	0		1.6 (≈ 5.53 µM)	25 (≈ 86.4 µM)	50	10	0	0	0	
C=C(c1ccc(Cl)cc1Cl)C(O)(Cn1cncn1)c1ccc(Cl)cc1Cl (stereo not drawn) [Example 100]	100	100	96	83	95	80	100	0	83			0.03 (≈ 0.0699 µM)	3.2 (≈ 7.46 µM)	100	50	30	0	0	P
C=C(c1ccc(Cl)cc1Cl)C(O)(Cn1cncn1)c1ccc(Cl)cc1 (stereo not drawn) [Example 101]	100	100	94	83	0	80	100	0	100	0		0.03 (≈ 0.076 µM)	12.5 (≈ 31.7 µM)	100	90	60	0	0	
